The record followed here is US20170196893A1, “TREATMENT OF INFLAMMATORY DEMYELINATING DISEASE WITH AGONISTS OF FARNESOID X RECEPTOR” (The Board of Trustees of the Leland Stanford Junior …, priority 2016, published 2017).

Molecules are shown by their SMILES.

Common to all, as to type: in vivo, mouse
Assay [1] relates to MOG35-55-specific lymphocytes. Kind of assay: 72 h proliferation assay (3H-thymidine) of splenocytes/lymph node cells harvested from treated mice, restimulated with MOG35-55. How it is done:
(§1) Proliferation and cytokine assays. Splenocytes and lymph nodes were harvested and stimulated with increasing concentrations of MOG35-55 for a total of 72 hours. For assessment of proliferation, 1 μCi of ^3H-thymidine was added to each well for the final 18-24 hours of culture, and incorporation of radioactivity was measured by using a Betaplate scintillation counter. Cytokine assays were performed on culture supernatants after 72 hours of culture by using the IL-2, IL-6, IFNgamma, and TNF BD OptEIA™ Mouse ELISA kits (BD Biosciences) or Mouse IL-17 DuoSet ELISA Development kit (R&D Systems).

The test system of assay [2] is experimental autoimmune encephalomyelitis (EAE). Kind of assay: Active EAE, clinical scores of mice with established EAE. To be noted: 5 mg/kg daily oral, 6-ECDCA vs CDCA vs vehicle (FIG. 3B).
Another assay deals with splenocytes. The experiment in a line: Cytokine production (ELISA) by splenocytes harvested from treated mice, restimulated with MOG35-55. To be noted: daily oral treatment of established EAE (FIG. 3D). How it is done:
as §1

The subject of assay [3] is experimental autoimmune encephalomyelitis (EAE). Kind of assay: Adoptive transfer EAE with cells of treated donor mice. Particulars: donor mice treated eleven days, cells restimulated 72 h with MOG35-55 and rIL-12; vs vehicle treated donors (FIG. 4D). Here is the method: Mice and EAE Induction. C57BL/6J and FXRKO (B6.129x1(FVB)-Nr1h4tm1Gonz/J, #0007214) female mice were purchased from the Jackson Laboratory. Animal experiments were approved by, and performed in compliance with, the National Institute of Health guidelines of the Institutional Animal Care and Use Committee at Stanford University. For induction of active and adoptive transfer of EAE, 8- to 12-week-old female mice were immunized subcutaneously with 100 μg of MOG35-55 emulsified in complete Freund's adjuvant (CFA), consisting of incomplete Freund's Adjuvant and 0.4 mg of heat inactivated Mycobacterium tuberculosis, strain H37 RA (Difco Laboratories). On days 0 and 2, mice were also injected intravenously or intraperitoneally with 400 ng pertussis toxin in 0.2 ml 1×PBS. Adoptive transfer requires harvesting lymph nodes and spleens ten days after immunization. Combined lymphocytes and splenocytes are cultured in bulk, at 5×10^7 cells/ml for seventy-two hours in the presence of MOG35-55 (20 μg/ml) and rIL-12 (10 ng/ml, R&D systems). Cells are harvested and washed twice before transfer of 3×10^7 cells in 0.2 ml 1×PBS into naive 6-7 week old female mice, intraperitoneally. Clinical disease was monitored daily using the following scoring system: 0, no disease; 1, limp tail; 2, hind limb weakness; 3, hind limb paralysis; 4, hind limb and forelimb paralysis; 5, death.

The test system of assay [4] is splenocytes (CD4+ T cells, CD8+ T cells, CD19+ B cells). The experiment in a line: FACS analysis of splenocytes harvested from treated MOG35-55-immunized mice. Particulars: eleven days oral dosing; for BTLA expression on CD4+ T cells: vehicle 2.87%; for PD1 expression on CD4+ T cells: vehicle 3.5%; for PD-L1 expression on CD4+ T cells: vehicle 8.32%; for BTLA expression on CD19+ B cells: vehicle 12.21%; for BTLA expression on CD8+ T cells: vehicle (WT) 0.78%; for PD1 expression on CD8+ T cells: vehicle (WT) 1.12%; for PD-L1 expression on CD8+ T cells: vehicle (WT) 5.63%; for CD3+CD8+ T cells: vehicle (WT) 6.75%; for CD3+CD4+ T cells: vehicle (WT) 8.34%; for PD1 expression on CD19+ B cells: vehicle (WT) 11.58%; for PD-L1 expression on CD19+ B cells: vehicle (WT) 12.21%; for CD19+B220+ B cells: vehicle (WT) 42.82%; for VLA-4 (CD29+CD49d+) expression on T cells: vehicle (WT) 44.12%; for VLA-4 (CD29+CD49d+) expression on B cells: vehicle (WT) 56.35%. From the text: Flow cytometry Cells were stained according to standard protocols, run on a FACScan flow cytometer (BD Biosciences), and analysed with CellQuest software (BD Immunocytometry Systems). The antibody conjugates used were PerCPCy5.5 anti-CD3, FITC anti-CD4, PE anti-CD8, PE anti-B220, PerCp-Cy5.5 anti-B220, FITC anti-CD19, PE anti-PD1, PE anti-PD-L1, PE anti-BTLA, PE anti-CD29, and FITC anti-CD49d (BD Pharmingen & eBioscience)

The nature of assay [5]: Serum lipid panel analysis of treated MOG35-55-immunized mice fasted overnight. Particulars: eleven days of oral dosing after EAE immunization, overnight fast (FIG. 4A). The source says: Serum Lipid Panel Analysis. Serum from mice fasted overnight was submitted to the Diagnostic Laboratory at Stanford University, Department of Comparative Medicine for a full lipid panel analysis.

As for `C[C@H](CCC(=O)O)[C@H]1CC[C@H]2[C@@H]3[C@H](O)C[C@@H]4C[C@H](O)CC[C@]4(C)[C@H]3CC[C@]12C` [CDCA, Chenodeoxycholic acid], the “T cell recall responses to MOG35-55” value in assay [1] (daily oral treatment of established EAE (FIG. 3C)) is “significantly suppressed”. Besides, the “Recall responses of MOG35-55-specific lymphocytes (proliferation)” value in assay [1] (eleven days of oral dosing, combined splenocytes and lymphocytes, vs vehicle (FIG. 4B)) was “greatly reduced”. Also, the “Clinical EAE score (average EAE disease grade)” value in assay [2] is “clinical disease was ameliorated”. Also, in the assay with splenocytes, the IFN-gamma production entry was “decreased”, the IL-6 production entry is “decreased”, the IL-17 production entry is reported as “not significantly altered” and the TNF production result is “decreased”. The “Clinical EAE scores of naive recipient mice” value in assay [3] is recorded as “significantly less severe disease”. In addition, in assay [4], the “BTLA expression on CD4+ T cells” value turned out to be 2.77%, the “PD1 expression on CD4+ T cells” value stood at 2.64%, the “PD-L1 expression on CD4+ T cells” value is on record as 8.43% and the “BTLA expression on CD19+ B cells” value was 6.76%. Further, in assay [4], the “BTLA expression on CD8+ T cells” value came out at 1.92%, the “PD1 expression on CD8+ T cells” value came to 1.63%, the “PD-L1 expression on CD8+ T cells” value was determined as 12.3% and the “CD3+CD8+ T cells” value is 12.92%. For the same compound, in assay [4], the “CD3+CD4+ T cells” value turned out to be 7.89%, the “PD1 expression on CD19+ B cells” value was found to be 9.58%, the “PD-L1 expression on CD19+ B cells” value worked out at 3.79% and the “CD19+B220+ B cells” value was 36.07%. In assay [4], the “VLA-4 (CD29+CD49d+) expression on T cells” value turned out to be 33.78% and the “VLA-4 (CD29+CD49d+) expression on B cells” value amounted to 49.16%. For the same compound, in assay [5], the “Serum HDL levels” value was “decreased”, the Serum cholesterol levels result is on record as “decreased”, the “Serum low-density lipoprotein (LDL) levels” value is “not significantly altered” and the Serum triglycerides result is listed as “not significantly altered”.

Turning to `CC[C@H]1[C@@H](O)[C@@H]2[C@H](CC[C@]3(C)[C@@H]([C@H](C)CCC(=O)O)CC[C@@H]23)[C@@]2(C)CC[C@@H](O)C[C@@H]12` [6-ECDCA, 6α-Ethyl-chenodeoxycholic acid], in assay [4], the “BTLA expression on CD4+ T cells” value turned out to be 2.38%, the “PD1 expression on CD4+ T cells” value was 2.74%, the “PD-L1 expression on CD4+ T cells” value came out at 6.59% and the “BTLA expression on CD19+ B cells” value was 6.23%. In assay [4], the “BTLA expression on CD8+ T cells” value is listed as 1.21%, the “PD1 expression on CD8+ T cells” value is 1.82%, the “PD-L1 expression on CD8+ T cells” value stood at 9.5% and the “CD3+CD8+ T cells” value was determined as 12.22%. Also, in assay [4], the “CD3+CD4+ T cells” value amounted to 7.33%, the “PD1 expression on CD19+ B cells” value was 12.3%, the “PD-L1 expression on CD19+ B cells” value was 11.34% and the “CD19+B220+ B cells” value is 30.69%. Further, in assay [4], the “VLA-4 (CD29+CD49d+) expression on T cells” value was 36.67% and the “VLA-4 (CD29+CD49d+) expression on B cells” value amounted to 51.98%.
